In patent publication US20160208330A1, “IDENTIFYING MARKERS OF CALORIC RESTRICTION AND CALORIC RESTRICTION MIMETICS” (NSE Products, Inc., priority 2011, published 2016):

Test system: genes listed in Table 6 (CR marker panel), white adipose tissue
Assay: Testing ingredients for mimicry of caloric restriction: feeding study, RT-qPCR of the Table 6 gene panel in white adipose tissue, fold change as percentage of the fold change in the CR group
Type: in vivo, C57BL/6J mice
Design: key to Avg. CRMI: points per gene: 11-20% mimicry = 1, 21-30% = 2...; opposite effect negative
Details: for Avg. CRMI: CR Mimetic Index, points per gene from mimicry score plus five points for significance; for Avg. mimicry: average over significantly changed genes; for CMII: mimetic index = average mimicry (fraction of CR) x number of significantly changed genes
Description: C57BL/6J mice were purchased from Jackson Laboratories at 6 weeks of age and maintained as described previously in Barger J L, et al. (2008) A Low Dose of Dietary Resveratrol Partially Mimics Caloric Restriction and Retards Aging Parameters in Mice. PLoS ONE 3(6): e2264 (http://dx.doi.org/10.1371/journal.pone.0002264). Briefly, mice were individually housed in shoebox cages and provided with 24 grams (˜84 kcal) of AIN-93M diet per week (7 grams on Monday and Wednesday and 10 grams on Friday). Starting at 8 weeks of age and continuing until 22 weeks of age, mice were either a) maintained on the AIN-93M diet (control group), b) fed a Calorie Restricted (CR) diet providing 63 kcal/week of a modified AIN93M from 8-16 weeks of age and then further reduced to a diet providing 49 kcal/week of a modified AIN93M from 16-22 weeks of age; or c) were assigned to an AIN93M diet supplemented with one of the following test ingredients: 1) bezafibrate at a dose of 5,000 mg/kg diet; 2) metformin at a dose of 1,909 mg/kg diet; 3) L-carnitine at a dose of 1,800 mg/kg diet; 4) blood orange extract at a dose of 18 mg/kg of body weight; 5) purple corn extract at a dose of 22 mg/kg of body weight; 6) resveratrol at a dose of 30 mg/kg of body weight; and 7) quercetin at a dose of 17.6 mg/kg of body weight. At 22 weeks of age, tissues were collected from the mice, flash-frozen in liquid nitrogen and stored at −80° C. for later analysis.
In order to screen the ingredients for their ability to mimic CR, quantitative real-time PCR (RT-qPCR) analysis was performed on RNA isolated from white adipose tissue from all groups of mice. Experimental methods and data analysis for RT-qPCR experiments have been published previously in Barger, J L et al., (2008) Short-term consumption of a resveratrol-containing nutraceutical mixture mimics gene expression of long-term caloric restriction in mouse heart, Exp. Gerontology 43(9):859 (http://dx.doi.org/10.1016/j.exger.2008.06.013). Briefly, the magnitude of change in gene expression was determined for each of the genes listed in Table 6 for the CR and treatment groups compared to the control animals. Two-tailed t-tests (assuming equal variance) were used to determine if the change in expression for individual genes was statistically significant. The magnitude of the change in expression (“fold change”) values were log2-adjusted to fit normality assumptions for statistical analyses.
CR mimicry was expressed as the fold change observed in each gene for the test group as a percentage of the fold change observed for that gene in the CR group.
The ingredients tested were based on their mimetic effect across the gene panel.
Another ranking approach was used to reflect effects across all genes. A CR Mimetic Index (CRMI) was calculated per gene for each ingredient by assigning each a number of points based on its mimicry score for each gene. Positive points were given for positive mimicry values (11 to 20%=1 point, 21 to 30%=2 points, 31 to 40%=3 points, and so on). Negative mimicry values (i.e. where the gene expression effect was opposite that observed for CR) received corresponding negative scores (i.e. −11 to −20%=−1 point, −21 to −30%=−2 points, −31 to −40%=[…], and so on). Five points were added for statistical significance of a mimicry value.
In the experimental protocol of Example 2, bezafibrate at 5,000 mg/kg diet was also compared to lower doses (100 and 500 mg/kg).
Mimetic indices were calculated for the 500 mg/kg and 100 mg/kg doses as in Example 2.

[1] = fold change as percentage of CR fold change, white adipose tissue
[2] = white adipose tissue, RT-qPCR, C57BL/6J mice fed from 8 to 22 weeks of age, ingredient doses, only significantly changed genes shown
[3] = white adipose tissue, Table 6 gene panel, diet supplemented from 8 to 22 weeks of age, doses (bezafibrate 5,000 mg/kg diet)
[4] = 100 mg/kg diet, white adipose tissue
[5] = 500 mg/kg diet, white adipose tissue
[6] = 5000 mg/kg diet, white adipose tissue

SMILES: CN(C)C(=N)N=C(N)N [Metformin, metformin]
- Avg. CRMI: 31
- Avg. mimicry [1]: 16%
- CMII: 0.6
- CR mimicry, Acaca (fold change as percentage of the fold change in the CR group) [2]: 17%
- CR mimicry, Gpd2 (fold change as percentage of the fold change in the CR group) [2]: 27%
- CR mimicry, Me1 (fold change as percentage of the fold change in the CR group) [2]: 11%
- CR mimicry, Parm1 (fold change as percentage of the fold change in the CR group) [2]: 10%
- No. of genes significantly changed [3]: 4

SMILES: C[N+](C)(C)C[C@H](O)CC(=O)[O-] [L-carnitine]
- Avg. CRMI: 55
- Avg. mimicry [1]: 31%
- CMII: 2.2
- CR mimicry, Acaca (fold change as percentage of the fold change in the CR group) [2]: 5%
- CR mimicry, Gpd2 (fold change as percentage of the fold change in the CR group) [2]: 15%
- CR mimicry, Nampt (fold change as percentage of the fold change in the CR group) [2]: 84%
- CR mimicry, Ndufs4 (fold change as percentage of the fold change in the CR group) [2]: 40%
- CR mimicry, Parm1 (fold change as percentage of the fold change in the CR group) [2]: 3%
- CR mimicry, Serpine1 (fold change as percentage of the fold change in the CR group) [2]: 52%
- CR mimicry, Slc2a4 (fold change as percentage of the fold change in the CR group) [2]: 16%
- No. of genes significantly changed [3]: 7

SMILES: CC(C)(Oc1ccc(CCNC(=O)c2ccc(Cl)cc2)cc1)C(=O)O [Bezafibrate, bezafibrate]
- CR mimicry Acaca [4]: 20%
- CR mimicry Cd68 [4]: 58%
- CR mimicry Gpd2 [4]: 23%
- CR mimicry Ifi27I2a [4]: 39%
- CR mimicry Acaca [5]: 23%
- CR mimicry Acss2 [5]: 17%
- CR mimicry Gpd2 [5]: 31%
- CR mimicry Me1 [5]: 18%
- CR mimicry Nampt [5]: 87%
- CR mimicry Parm1 [5]: 19%
- CR mimicry Slc2a4 [5]: 69%
- CR mimicry Acaca [6]: 59%
- CR mimicry Acss2 [6]: 21%
- CR mimicry Cd68 [6]: 58%
- CR mimicry Gpd2 [6]: 93%
- CR mimicry Ifi27I2a [6]: 75%
- CR mimicry Me1 [6]: 24%
- CR mimicry Nampt [6]: 233%
- CR mimicry Ndufs4 [6]: 108%
- CR mimicry Parm1 [6]: 47%
- CR mimicry Slc2a4 [6]: 113%
- Avg. CRMI: 128
- Avg. mimicry [1]: 83%
- Avg. CRMI (CR Mimetic Index, points per gene) (bezafibrate 100 mg/kg diet): 28
- CMII (average mimicry as fraction of CR x number of significantly changed genes) (bezafibrate 100 mg/kg diet): 1.4
- Avg. mimicry (bezafibrate 100 mg/kg diet): 35%
- No. of genes significantly changed (bezafibrate 100 mg/kg diet, white adipose tissue gene panel): 4
- Avg. CRMI (CR Mimetic Index, points per gene) (bezafibrate 500 mg/kg diet): 68
- CMII (average mimicry as fraction of CR x number of significantly changed genes) (bezafibrate 500 mg/kg diet): 2.6
- Avg. mimicry (bezafibrate 500 mg/kg diet): 38%
- No. of genes significantly changed (bezafibrate 500 mg/kg diet, white adipose tissue gene panel): 7
- Avg. CRMI (CR Mimetic Index, points per gene) (bezafibrate 5000 mg/kg diet): 128
- CMII (average mimicry as fraction of CR x number of significantly changed genes) (bezafibrate 5000 mg/kg diet): 8.3
- Avg. mimicry (bezafibrate 5000 mg/kg diet): 83%
- No. of genes significantly changed (bezafibrate 5000 mg/kg diet, white adipose tissue gene panel): 10
- CMII: 8.3
- CR mimicry, Acaca (fold change as percentage of the fold change in the CR group) [2]: 59%
- CR mimicry, Acss2 (fold change as percentage of the fold change in the CR group) [2]: 21%
- CR mimicry, Cd68 (fold change as percentage of the fold change in the CR group) [2]: 58%
- CR mimicry, Gpd2 (fold change as percentage of the fold change in the CR group) [2]: 93%
- CR mimicry, Ifi27I2a (fold change as percentage of the fold change in the CR group) [2]: 75%
- CR mimicry, Me1 (fold change as percentage of the fold change in the CR group) [2]: 24%
- CR mimicry, Nampt (fold change as percentage of the fold change in the CR group) [2]: 233%
- CR mimicry, Ndufs4 (fold change as percentage of the fold change in the CR group) [2]: 108%
- CR mimicry, Parm1 (fold change as percentage of the fold change in the CR group) [2]: 47%
- CR mimicry, Slc2a4 (fold change as percentage of the fold change in the CR group) [2]: 113%
- No. of genes significantly changed [3]: 10

SMILES: Oc1ccc(C=Cc2cc(O)cc(O)c2)cc1 [Resveratrol, resveratrol]
- Avg. CRMI: 35
- Avg. mimicry [1]: 34%
- CMII: 1.38
- CR mimicry, Acaca (fold change as percentage of the fold change in the CR group) [2]: 8%
- CR mimicry, Gpd2 (fold change as percentage of the fold change in the CR group) [2]: 10%
- CR mimicry, Nampt (fold change as percentage of the fold change in the CR group) [2]: 65%
- CR mimicry, Serpine1 (fold change as percentage of the fold change in the CR group) [2]: 55%
- No. of genes significantly changed [3]: 4

SMILES: O=c1c(O)c(-c2ccc(O)c(O)c2)oc2cc(O)cc(O)c12 [Quercetin, quercetin]
- Avg. CRMI: 17
- Avg. mimicry [1]: 20%
- CMII: 0.4
- ranking of CR mimicry among tested ingredients (ranking by mimetic index (CMII), Table 8): lowest degree of CR mimicry
- CR mimicry, Gpd2 (fold change as percentage of the fold change in the CR group) [2]: 5%
- CR mimicry, Slc2a4 (fold change as percentage of the fold change in the CR group) [2]: 35%
- No. of genes significantly changed [3]: 2
